Reference: patent US20030026831A1, “Anionic liposomes for delivery of bioactive agents” (priority 2001, published 2003)
Like-named read-outs stand apart in the source and are kept apart here.

Assays:
neurons = assay: Toxicity screening of commercial cationic lipids; details: 8 hours after incubation, compared to untreated controls
hippocampal neurons [1] = assay: Lipid exacerbation of sub-maximal glutamate toxicity
Description: FIG. 9. […] Arrowhead: amount of anionic lipid present in liposomes corresponding to a 1 μM final concentration of ON. Arrow: amount of cationic lipid present in complexes corresponding to a +/−charge ratio of 1/2 and 1 μM final concentration of ON. 20, 40, and 100 μg DC-Chol/DOPE correspond to amounts present in complexes of +/−charge ratio 1.6/1, 3.2/1, and 8/1 (μmole lipid/μmole ON), respectively, for a 1 μM final ON concentration. Data expressed as Mean ±S.E.M., n≧9.
Neurons were treated with amounts of cationic lipid required to complex 1 μM ONs in +/−charge ratios (μmole lipid/μmole ON) of 1/2, 1.6/1, 3.2/1 and 8/1 (6.25, 20, 40 and 100 μg DC-Chol, respectively).

hippocampal neurons [2] = assay type: cell-based, rat; details: for Neuronal survival after glutamate: survival at 48 hours
Description: Hippocampal Cell Culture. Primary cultures of hippocampal neurons were prepared from neonatal rat pups (p1 or p2) as previously described (Dubinsky, 1993). Neurons were plated at a density of 60,000 cells/cm^2 onto polylysine-coated plastic 12-well plates or 100 mm dishes (Becton Dickinson, Franklin Lakes, N.J.) in Neurobasal medium with B27 supplements (Life technologies, Rockville, Md.) and 0.5 mM glutamine. Fluorodeoxyuridine (15 μg/ml) was added to the cultures 24 hours after plating to inhibit glial growth. Under these culture conditions, the survival and growth of non-neuronal cells was minimized. Cells were maintained at 37° C. in 95% air/5% CO2 and were used between 6-8 days in vitro.
Neuroprotection Experiments. […] The ratio of viable cells to the total number of neurons in the pre-selected fields was calculated for quantifying survival.

hippocampal neurons [3] = assay: Endocytosis assays: agents acting on AL-Cy3ON internalization; assay type: cell-based, rat; details: 10 minutes pretreatment (0.45 M sucrose, 1 μM FK506, 500 nM RAP, 100 μg/ml heparin or protamine sulfate, 5 μg/ml nocodazole, 10 μg/ml cytochalasin D, 100 nM wortmannin), then AL-Cy3ONs 30 minutes at 37° C.
Description: Endocytosis Assays. The following agents were used to manipulate specific steps of the endocytic cycle: 0.45 M hyperosmolar sucrose (ICN biochemicals), 1 μM FK-506 (Calbiochem), and 100 nM wortmannin, 5 μg/ml nocodazole, 10 μg/ml cytochalasin D, 100 μg/ml heparin and 100 μg/ml protamine sulfate, (all from Sigma-Aldrich). Receptor-associated protein (RAP) was a generous gift from Dr. Guojun Bu (Washington University, St. Louis, Mo.) and was used at a concentration of 500 nM (Bu et al., 1994). Cells were treated with the drugs or RAP for 10 minutes prior to incubation with AL-Cy3ONs for 30 minutes at 37° C. and fixed for imaging.
(§1) Confocal Microscopy and Image Analysis. Imaging was performed on a Leica TCS 4D confocal microscope (Deerfield, Ill.) equipped with a Mercury/Xenon lamp and argon/krypton laser. Cells were excited using the 488 nm laser line to detect Oregon Green 488-Transferrin and Alexa488-Dextran, and the emitted fluorescence was collected using a 515 long-pass filter. The 568 nm laser line was used to excite Cy3 and N—Rh-DOPE (LP590 emission). Cells were imaged at a plane midway between the substrate-attached plasma membrane and the top of the cell, such that neuronal nuclei were clearly identifiable. In some cases, the entire volume of the cell was scanned in 0.5 μm increments. Optimal images were obtained by averaging 16 images in the line-scan mode at the same fixed gains for all experiments. All fluorescent images presented in figures were equally contrast enhanced using ADOBE PHOTOSHOP (Adobe, Mountain View, Calif.).

hippocampal neurons [4] = assay: Colocalization with transferrin (early and recycling endosomes); assay type: cell-based, rat; details: delivered in anionic liposomes
Description: (§2) Colocalization of Lipids and Oligonucleotides with Transferrin and Dextran. Intracellular fates of endocytosed liposomes and ONs were determined by comparing their intracellular distributions with that of Oregon Green 488-Transferrin (OG-Tf) and Alexa488-dextran (Molecular Probes, Eugene, Oreg.) used as markers for the recycling and lysosomal compartments, respectively. Neurons were incubated with AL-Cy3ONs and either 100 μg/ml OG-Tf, for 30 minutes, 1 hour or 3 hours; or with 1 mg/ml Alexa488-dextran for 3 hours. For the lipid transport experiments, neurons were incubated with liposomes labeled with N—Rh-DOPE and either OG-TF, for 30 minutes, 1 hour, or 3 hours; or with 1 mg/ml Alexa-dextran for 3 hours. In another set of experiments, neurons were incubated with AL-Cy3ONs for 30 minutes, rinsed and chased with 1 mg/ml Alexa 488 dextran for 3 hours. Cells were rinsed and fixed for imaging as described above.
as §1
(§3) All image analysis was performed using the METAMORPH Imaging System software (Universal Imaging, Downington, Pa.). The cell outlines for each set of double-labeled fields were traced out manually in the corresponding differential interference contrast image and then used to mask the fluorescence images. In each cell, the total fluorescence intensity was measured and the percent of Cy3 label or rhodamine label that colocalized with transferrin or dextran was calculated.

hippocampal neurons [5] = assay: Colocalization with dextran (late endosomes and lysosomes); assay type: cell-based, rat; details: 3 h; delivered in anionic liposomes
Description: as §2
as §1, with “Optimal images were obtained by averaging 16 images in the line-scan mode at the same fixed gains for all experiments. All fluorescent images presented in figures were equally contrast enhanced using ADOBE PHOTOSHOP (Adobe, Mountain View, Calif.).” left out
as §3

hippocampal neurons [6] = assay: Neuronal calcium (Fura-2) during perfusion of liposomes; assay type: cell-based, rat; details: continuous perfusion of N-Rh-DOPE labeled liposomes; 100 μM NMDA as positive stimulus
Description: FIG. 4. […] (a) Neurons were treated with 100 μg/ml heparin prior to incubation with AL-Cy3ON. Scale bar: 5 μm. (b) Fura-2 ratios in hippocampal neurons were not altered during perfusion of anionic liposomes labeled with N—Rh-DOPE but increased in response to 100 μM NMDA. Data were from a representative field of 23 neurons from among 110 neurons imaged in 5 experiments. (c) Image taken at 24 min (*) indicated the uptake of N-Rh-DOPE within the same neurons in the field.
Addition of activated a2-M (a2-M*) to cortical neurons caused a Ca^2+ influx that was both spatially and temporally discrete. […] To examine whether the endocytosis of anionic liposomes via LRP caused Ca^2+ influx into neurons, neuronal calcium currents were studied during a continuous perfusion of liposomes labeled with N—Rh-DOPE.
Liposomes labeled with N—Rh-DOPE were prepared in a manner identical to that described in Example 1 for liposomes encapsulating Cy3ONs except that the lipid films contained 1-2.5 mole percent N—Rh-DOPE and the liposomes were prepared with buffer alone (i.e., without ONs).

[7] = Lipid/ON (+/−) charge ratio 1/1
[8] = Lipid/ON (+/−) charge ratio 2/1
[9] = 20 μM each, added 1-2 minutes before 50 μM glutamate

CC(C)CCC[C@@H](C)[C@H]1CC[C@H]2[C@@H]3CC=C4C[C@@H](OC(=O)NCCN(C)C)CC[C@]4(C)[C@H]3CC[C@]12C [DC-Chol, 3β-[N-(N′,N′-dimethylaminoethane)-carbamol] cholesterol]
% Neuronal survival (neurons; [7]): 45.7% | % Neuronal survival (neurons; [8]): 17.3% | Neuronal survival (hippocampal neurons [1]; 6.25 μg DC-Chol (+/− charge ratio 1/2 for 1 μM ON), 48 hours post-glutamate): survived 48 hours post-glutamate | Neuronal survival (hippocampal neurons [1]; 20, 40 and 100 μg DC-Chol (charge ratios 1.6/1, 3.2/1, 8/1), 48 hours post-glutamate): caused extensive neuronal loss

N#Cc1cc2[nH]c(=O)c(=O)[nH]c2cc1[N+](=O)[O-] [CNQX]
Neuronal survival after glutamate (hippocampal neurons [2]; [9]): significantly increased the survival of glutamate-treated neurons

N[C@@H](CCC(=O)O)C(=O)O [glutamate]
Neuronal survival (hippocampal neurons [1]; 48 hour exposure to 10 μM glutamate alone): 71%

p53 phosphodiester AsONs: free phosphodiester 5′-CTGTGAATCCTCCATGAC-3′ (SEQ ID NO:2) (unmodified DNA; listed as Rattus norvegicus)
Neuroprotection by free ONs (hippocampal neurons [2]; without encapsulation in anionic liposomes, 50 μM glutamate, 48 hours): not neuroprotective

RAP: 39 kDa LRP receptor-associated protein, inhibitor of all known ligand interactions of LRP
Effect on binding/internalization of AL-Cy3ONs by neurons (hippocampal neurons [3]): both binding and internalization of anionic liposomes was inhibited

C=C1[C@@H](C)[C@H]2[C@H](Cc3ccccc3)NC(=O)[C@]23[C@H](OC(C)=O)/C=C/[C@@](C)(O)C(=O)[C@@H](C)C/C=C/[C@H]3[C@@H]1O [cytochalasin D]
Effect on binding/internalization of AL-Cy3ONs by neurons (hippocampal neurons [3]): prevented both binding and internalization of the liposomes

C[C@]12N[C@H](Cc3ccccc31)c1ccccc12 [MK-801]
Neuronal survival after glutamate (hippocampal neurons [2]; [9]): significantly increased the survival of glutamate-treated neurons

CCCCCCCC/C=C\CCCCCCCC(=O)OC[C@H](COP(=O)(O)OC[C@H](N)C(=O)O)OC(=O)CCCCCCC/C=C\CCCCCCCC [DOPS, 1,2-dioleoyl-sn-glycero-3-[phospho-L-serine]]
Neuronal survival (hippocampal neurons [1]; 40 μg lipid (liposomes without AsONs), then 10 μM glutamate for 48 hours): 48% | Effect of increasing amounts of lipid on glutamate toxicity (hippocampal neurons [1]; liposomes without AsONs, then 10 μM glutamate for 48 hours): dose-dependently exacerbate toxicity

CCCCCCCC/C=C\CCCCCCCC(=O)OCC(C[N+](C)(C)C)OC(=O)CCCCCCC/C=C\CCCCCCCC (stereo not shown) [DOTAP, 1,2-dioleoyl-3-trimethylammonium-propane]
% Neuronal survival (neurons; [7]): 28.2% | % Neuronal survival (neurons; [8]): ˜0%

Lissamine Rhodamine DOPE [N-Rh-DOPE]
Percent colocalization with Transferrin (hippocampal neurons [4]; 30 min): 45.56 ± 2.2% | Percent colocalization with Transferrin (hippocampal neurons [4]; 1 h): 51.88 ± 2.7% | Percent colocalization with Dextran (hippocampal neurons [5]): 22.18 ± 1.5%

CN[C@H](CC(=O)O)C(=O)O [NMDA]
Calcium response (Fura-2 ratios) in hippocampal neurons (hippocampal neurons [6]): increased

protamine sulfate
Effect on binding/internalization of AL-Cy3ONs by neurons (hippocampal neurons [3]): Neither heparin nor protamine altered the level of Cy3 fluorescence within neurons

COC(=O)Nc1nc2ccc(C(=O)c3cccs3)cc2[nH]1 [nocodazole]
Effect on binding/internalization of AL-Cy3ONs by neurons (hippocampal neurons [3]): intracellular transport was inhibited

Cc1ccc(C(=O)Cn2c3c(sc2=N)CCCC3)cc1 [PFT-α, Pifithrin-α]
Concentrations toxic in hippocampal cultures (hippocampal neurons [2]): 20 to 100 µM | Neuronal survival after glutamate (hippocampal neurons [2]; 10 μM, added 3 hours before 50 μM glutamate): significantly increased the survival of glutamate-treated neurons | Concentrations not protective (hippocampal neurons [2]; 50 μM glutamate): 0.5 to 7 µM

OC[C@H]1O[C@@](CO)(O[C@H]2O[C@H](CO)[C@@H](O)[C@H](O)[C@H]2O)[C@@H](O)[C@@H]1O [sucrose]
Effect on binding/internalization of AL-Cy3ONs by neurons (hippocampal neurons [3]): completely prevented internalization

heparin
Effect on binding/internalization of AL-Cy3ONs by neurons (hippocampal neurons [3]): Neither heparin nor protamine altered the level of Cy3 fluorescence within neurons
